We go through three compounds from patent US8445636B2, “Antimicrobial and anticancer lipopeptides” (Yeda Research & Development Co. Ltd., priority 2003, dated 2013).

The structures appear in SMILES notation. Non-standard residues stand in square brackets, D forms with d. Residues, ends and D or L forms follow the SMILES beside them. *: point of attachment. Palmitoyl = CCCCCCCCCCCCCCCC(=O)*; Myristoyl = CCCCCCCCCCCCCC(=O)*; Decanoyl = CCCCCCCCCC(=O)*

Holding throughout (assay type): cell-based
In data set [1] the test system is Aspergillus fumigatus ATCC 26430. In words: microbe, parasite or virus in culture. The settings on record: ATCC 26430, pH 7.4.
Data set [2] has as its system Candida albicans ATCC 10231. The data set can be described thus: microbe, parasite or virus in culture. The settings on record: ATCC 10231, pH 7.4. In short, it runs like this: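 In this assay, each strain, prepared at 1×10^4 CFU/ml before mixing, met serial twofold peptide dilutions in RPMI 1640 buffered with 0.165 M MOPS. Unless noted, pH was 7.4; a pH 5.5 condition was also run. After 24-48 h incubation (35 °C, agitated), wells were scored at 620 nm for total inhibition.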

Data set [3] deals with Cryptococcus neoformans ATCC MYA-422. In words: microbe, parasite or virus in culture. The settings on record: ATCC MYA-422, pH 7.4.
The test system of data set [4] is Staphylococcus aureus ATCC 6538P. To be noted: ATCC 6538, pH 7.4. In short, it runs like this:
(§1)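 MIC = lowest concentration with 100% growth inhibition, judged from A600 after 18-20 h incubation at 37° C. Bacteria at 1×10^6 CFU/ml in LB (pH 7.4 unless pH 5.5 stated) combined with equal volume of serially 2-fold diluted lipopeptide.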

Data set [5] deals with Pseudomonas aeruginosa ATCC 27853. To be noted: ATCC 27853, pH 7.4. In short, it runs like this: as §1
The subject of another data set is E. coli ATCC 35218. The settings on record: ATCC 35218, pH 7.4. In short, it runs like this: as §1
The subject of another data set is E. aerogenes ATCC 35029. The settings on record: ATCC 35029, pH 7.4. In short, it runs like this:
as §1

Data set [6] in a line: Cytotoxicity, XTT viability, non-cancer cells. The settings on record: mouse, non-cancer cell line, 24 h incubation, read-out: LC50, 3T3. As to the method: Prostate cancer cell lines (CL1 and 22RV1; ATCC, USA) were grown in RPMI-1640 supplemented with 10% FCS (Biological Industries, Beit Haemek, Israel). N1H-3T3 mouse fibroblast cell line (ATCC, USA) was grown in DMEM supplemented with 10% bovine serum. To test cytotoxicity against the cancer cells, aliquots of medium containing 1×10^4 cells were distributed into a 96-well plate (Falcon). After one day, the media were replaced with 90 μl of fresh media and 10 μl of a solution containing different concentrations of the peptides. The plate was then incubated for 24 h before adding to each well 50 μl of XTT reaction solution (Biological Industries, Beit Haemek, Israel); viability was determined as previously described (Papo et al., (2003) J. Biol. Chem. 278:21018-23). The LC50 (concentration at which 50% of the cells die) for each peptide was obtained from the dose-dependent cell viability curves.

For `CCCCCCCCCC(=O)N[C@H](CC(C)C)C(=O)N[C@@H](CCCCN)C(=O)N[C@@H](CCCCN)C(=O)N[C@H](CC(C)C)C(=O)N[C@H](CC(C)C)C(=O)N[C@@H](CCCCN)C(=O)N[C@@H](CCCCN)C(=O)N[C@H](CC(C)C)C(=O)N[C@H](CC(C)C)C(=O)N[C@@H](CCCCN)C(=O)N[C@@H](CCCCN)C(=O)N[C@H](CC(C)C)C(N)=O` [lipopeptide 21, (CH3-(CH2)8-CO-)-D-Leu-Lys-Lys-D-Leu-D-Leu-Lys-Lys-D-Leu-D-Leu-Lys-Lys-D-Leu-NH2] (Decanoyl-[dL]KK[dL][dL]KK[dL][dL]KK[dL]-NH2), the “Minimal Inhibitory Concentration, A. fumigatus ATCC 26430” value in data set [1] was determined as 12.5 µM. In addition, in data set [2], the “Minimal Inhibitory Concentration, C. albicans ATCC 10231” value is 25 µM. Further, in data set [3], the “Minimal Inhibitory Concentration, C. neoformans ATCC MYA-422” value stood at 1.56 µM. Besides, the “Minimal Inhibitory Concentration, S. aureus ATCC 6538P” value in data set [4] stood at 6.25 µM. The “Minimal Inhibitory Concentration, P. aeruginosa ATCC 27853” value in data set [5] amounted to 12.5 µM. For the same compound, the “Minimal Inhibitory Concentration, E. coli ATCC 35218” value in the data set with E. coli ATCC 35218 was 12.5 µM. The “Minimal Inhibitory Concentration, E. aerogenes ATCC 35029” value in the data set on E. aerogenes ATCC 35029 was found to be 50 µM.

`CCCCCCCCCCCCCC(=O)N[C@H](CC(C)C)C(=O)N[C@@H](CCCCN)C(=O)N[C@@H](CCCCN)C(=O)N[C@H](CC(C)C)C(=O)N[C@H](CC(C)C)C(=O)N[C@@H](CCCCN)C(=O)N[C@@H](CCCCN)C(=O)N[C@H](CC(C)C)C(=O)N[C@H](CC(C)C)C(=O)N[C@@H](CCCCN)C(=O)N[C@@H](CCCCN)C(=O)N[C@H](CC(C)C)C(N)=O` [lipopeptide 23, (CH3-(CH2)12-CO-)-D-Leu-Lys-Lys-D-Leu-D-Leu-Lys-Lys-D-Leu-D-Leu-Lys-Lys-D-Leu-NH2] (Myristoyl-[dL]KK[dL][dL]KK[dL][dL]KK[dL]-NH2): the CC50 at 24 h in data set [6] was determined as 50 µM. In data set [1], the “Minimal Inhibitory Concentration, A. fumigatus ATCC 26430” value is 1.56 µM. Besides, the “Minimal Inhibitory Concentration, C. albicans ATCC 10231” value in data set [2] was determined as 1.56 µM. Further, in data set [3], the “Minimal Inhibitory Concentration, C. neoformans ATCC MYA-422” value worked out at 0.78 µM. The “Minimal Inhibitory Concentration, S. aureus ATCC 6538P” value in data set [4] is 50 µM. In data set [5], the “Minimal Inhibitory Concentration, P. aeruginosa ATCC 27853” value came to 50 µM. In addition, the “Minimal Inhibitory Concentration, E. coli ATCC 35218” value in the data set with E. coli ATCC 35218 turned out to be 50 µM. For the same compound, the “Minimal Inhibitory Concentration, E. aerogenes ATCC 35029” value in the data set on E. aerogenes ATCC 35029 is over 50 µM.

As to `CCCCCCCCCCCCCCCC(=O)N[C@H](CC(C)C)C(=O)N[C@@H](CCCCN)C(=O)N[C@@H](CCCCN)C(=O)N[C@H](CC(C)C)C(=O)N[C@H](CC(C)C)C(=O)N[C@@H](CCCCN)C(=O)N[C@@H](CCCCN)C(=O)N[C@H](CC(C)C)C(=O)N[C@H](CC(C)C)C(=O)N[C@@H](CCCCN)C(=O)N[C@@H](CCCCN)C(=O)N[C@H](CC(C)C)C(N)=O` [lipopeptide 24, (CH3-(CH2)14-CO-)-D-Leu-Lys-Lys-D-Leu-D-Leu-Lys-Lys-D-Leu-D-Leu-Lys-Lys-D-Leu-NH2] (Palmitoyl-[dL]KK[dL][dL]KK[dL][dL]KK[dL]-NH2), the CC50 at 24 h in data set [6] is 50 µM. In data set [1], the “Minimal Inhibitory Concentration, A. fumigatus ATCC 26430” value turned out to be 1.56 µM. Also, the “Minimal Inhibitory Concentration, C. albicans ATCC 10231” value in data set [2] was found to be 1.56 µM. Further, the “Minimal Inhibitory Concentration, C. neoformans ATCC MYA-422” value in data set [3] worked out at 0.78 µM. In addition, in data set [4], the “Minimal Inhibitory Concentration, S. aureus ATCC 6538P” value was 50 µM. In addition, the “Minimal Inhibitory Concentration, P. aeruginosa ATCC 27853” value in data set [5] was over 50 µM. Further, the “Minimal Inhibitory Concentration, E. coli ATCC 35218” value in the data set with E. coli ATCC 35218 was 50 µM. The “Minimal Inhibitory Concentration, E. aerogenes ATCC 35029” value in the data set with E. aerogenes ATCC 35029 was over 50 µM.
